Earlier results on one compound are cited in patent US7824714B2, “Chinese herb extract for treating dementia and preparation method thereof” (Development Center for Biotechnology, priority 2008, dated 2010).

Data set [1] deals with mice having scopolamine dementia and Aβ dementia.
The test system of data set [2] is brain cells. The following applies: animal experiments.

With `OC[C@H]1O[C@@H](Oc2c(O)cc(O)cc2C=Cc2ccc(O)cc2)[C@H](O)[C@@H](O)[C@@H]1O` [stilbene glucoside compound, 3,4′,5-trihydroxy-2-stilbenyl beta-D-glucoside], in data set [1], the memory capacity result was “increasing”. In addition, in data set [2], the “damage of brain cells caused by β-amyloid protein and hydrogen peroxide” value is listed as “capable of preventing”.
